The subject of the assay is phospho-serine 2056 DNA-PK in HCT116 cells. Description: DNA-PK phosphorylation at serine 2056 (cellular), ELISA in bleomycin-treated HCT116 cells. The conditions noted are these: read-out: IC50 pDNA-PK. The assay is classed as cell-based. Here is the method:
HCT116 cells were cultivated at 37° C. and 10% CO2 in MEM alpha medium with 10% of foetal calf serum and 2 mM glutamine. The cells were detached from the base of the culture vessels with the aid of trypsin/EDTA, centrifuged off in centrifuge tubes, taken up in fresh medium, and the cell density was determined. 100,000 cells were sown in 1 ml of culture medium per cavity of a 24-well cell culture plate and cultivated overnight. Next day, 10 μM bleomycin (DNA intercalator and inductor of DNA double-strand breaks) and test substances in fresh culture medium were added to the cells, and these were cultivated for a further six hours. […] The 96-well ELISA plates were subsequently treated with a detection antibody (Abcam ab79444: total DNA-PK) and a streptavidin-HRP conjugate. The development of the enzymatic reaction was carried out with the aid of a chemiluminescent reagent, the chemiluminescence was measured with the aid of a Mithras LB940. The signals with the phospho-DNA-PK-specific antibody were standardised to the signal with the antibody against the total protein DNA-PKc. […] The DMSO control was used as blank.

Where [1] appears, read: Homo sapiens, HCT-116, 6 h, cellular, HCT116 cells, 10 μM bleomycin, six hours.
[2] abbreviates: Homo sapiens, HCT-116, phospho-serine 2056 DNA-PK, bleomycin-treated HCT116 cells, class symbols A-D.
Where [3] appears, read: Homo sapiens, HCT-116, cellular DNA-PK phosphorylation at serine 2056, HCT116 cells.
[4] abbreviates: Homo sapiens, HCT-116, phospho-serine 2056 DNA-PK, bleomycin-treated HCT116 cells.
The mark [5] stands for this setting: cellular DNA-PK phosphorylation at serine 2056, HCT116 cells.

Like-named read-outs stand apart in the source and are kept apart here. Where only a bound is given, the exact number is not on record here.

As for `OC(c1cc(-c2ncnc3cc(N4CCOCC4)ccc23)c(F)cc1F)c1ncnc2sccc12` (stereo not shown) [Example 90, [2,4-Difluoro-5-(7-morpholin-4-yl-quinazolin-4-yl)-phenyl]thieno[2,3-d}-pyrimidin-4-ylmethanol], under setting [1], the IC50 (in general, the concentration needed to halve the response being measured) was less than 0.5 µM.
Turning to `OC(c1cccc(-c2ncnc3cc(N4CCOCC4)ccc23)c1)(c1nccs1)C(F)(F)F` (stereo not shown) [Example 172, 2,2,2-Trifluoro-1-[3-(7-morpholin-4-yl-quinazolin-4-yl)-phenyl]-1-thiazol-2-ylethanol], the half-inhibitory concentration (IC50) under setting [2] lay in the range of 10 to 30 µM.
As to `COc1ccc(C(O)c2ccc(F)c(-c3ncnc4cc(N5CCOCC5)cc(F)c34)c2)nn1` (stereo not shown) [Example 260, [4-Fluoro-3-(5-fluoro-7-morpholin-4-yl-quinazolin-4-yl)-phenyl]-(6-methoxy-pyridazin-3-yl)-methanol], the half-inhibitory concentration (IC50) (phospho-serine 2056 DNA-PK, bleomycin-treated HCT116 cells) is less than 0.5 µM.
On to `Cn1cnc2c(C(O)c3cc(-c4ncnc5cc(N6CCOCC6)ccc45)ccc3F)ncnc21` (stereo not shown) [Example 370, [2-Fluoro-5-(7-morpholin-4-yl-quinazolin-4-yl)-phenyl]-(9-methyl-9H-purin-6-yl)-methanol], for which, under setting [3], the IC50 lay within 0.5 to 5 µM.
As to `NC(=O)C(c1cccnn1)c1cc(-c2ncnc3cc(N4CCOCC4)ccc23)c(F)cc1Cl` (stereo not shown) [Example 300, 2-[2-Chloro-4-fluoro-5-(7-morpholin-4-yl-quinazolin-4-yl)-phenyl]-2-pyridazin-3-ylacetamide], the 50% inhibitory concentration (IC50) under setting [4] was 10 to 30 µM.
On to `O=c1[nH]nc(C(O)c2ccc(F)c(-c3ncnc4cc(N5CCOCC5)ccc34)c2)c2ccsc12` (stereo not shown) [Example 338, 4-[[4-Fluoro-3-(7-morpholino-quinazolin-4-yl)-phenyl]hydroxy-methyl]-6H-thieno[2,3-d}-pyridazin-7-one], for which the half-inhibitory concentration (IC50) under setting [4] was in the range of 0.5 to 5 µM.
For the compound `COc1ccc([C@@H](O)c2cc(-c3ncnc4cc(N5CCOCC5)ccc34)c(F)cc2Cl)nn1` [Example 136, (S)-[2-Chloro-4-fluoro-5-(7-morpholin-4-yl-quinazolin-4-yl)-phenyl]-(6-methoxy-pyridazin-3-yl)-methanol], the half-maximal inhibitory concentration (IC50) under setting [2] is less than 0.5 µM.
Regarding `OC(c1cc(-c2ncnc3cc(N4CCOCC4)ccc23)ccc1F)c1nccn2ccnc12` (stereo not shown) [Example 372, [2-Fluoro-5-(7-morpholin-4-yl-quinazolin-4-yl)-phenyl]imidazo-[1,2-a]pyrazin-8-yl-methanol], the IC50 under setting [3] was 0.5 to 5 µM.
As to `O=C(O)c1ccc(C(O)c2cc(-c3ncnc4cc(N5CCOCC5)ccc34)c(F)cc2Cl)nn1` (stereo not shown) [Example 55, 6-{[2-Chloro-4-fluoro-5-(7-morpholin-4-yl-quinazolin-4-yl)phenyl]-hydroxymethyl}-pyridazine-3-carboxylic acid], the IC50 under setting [1] fell in the range of 10 to 30 µM.
Take `Cc1nccnc1C(O)c1cc(-c2ncnc3cc(N4CCOCC4)ccc23)c(F)cc1Cl` (stereo not shown) [Example 457, [2-Chloro-4-fluoro-5-(7-morpholin-4-yl-quinazolin-4-yl)-phenyl]-(3-methyl-pyrazin-2-yl)-methanol]: the IC50 under setting [3] was less than 0.5 µM.
Take `Cc1nccnc1C(O)c1cc(-c2ncnc3cc(N4CCOCC4)ccc23)ccc1Cl` (stereo not shown) [Example 428, [2-Chloro-5-(7-morpholin-4-yl-quinazolin-4-yl)-phenyl]-(3-methyl-pyrazin-2-yl)-methanol]: the half-inhibitory concentration (IC50) under setting [5] is less than 0.5 µM.
Take `OC(c1ccc(F)c(-c2ncnc3cc(N4CCOCC4)ccc23)c1)c1nccn2cnnc12` (stereo not shown) [Example 351, [4-Fluoro-3-(7-morpholin-4-yl-quinazolin-4-yl)-phenyl]-[1,2,4]-triazolo[4,3-a]-pyrazin-8-ylmethanol]: the half-maximal inhibitory concentration (IC50) under setting [4] fell in the range of 10 to 30 µM.
Same read-out and setting: for `OC(c1cc(-c2ncnc3cc(N4CCOCC4)ccc23)ccc1Cl)c1ncnn2cccc12` (stereo not shown) [Example 362, [2-Chloro-5-(7-morpholin-4-yl-quinazolin-4-yl)-phenyl]pyrrolo[2,1-f]-[1,2,4]triazin-4-yl-methanol] the value was 0.5 to 5 µM.
With `NC(=O)C(c1cc(-c2ncnc3cc(N4CCOCC4)ccc23)ccc1Cl)c1nccnc1Cl` (stereo not shown) [Example 315, 2-[2-Chloro-5-(7-morpholin-4-yl-quinazolin-4-yl)-phenyl]-2-(3-chloro-pyrazin-2-yl)-acetamide], the IC50 under setting [4] fell in the range of 10 to 30 µM.
Consider `O[C@@H](c1cc(-c2ncnc3cc(N4CCOCC4)ccc23)c(F)cc1Cl)c1nccn2ccnc12` (single isomer, unassigned) [Example 396], for which, under setting [5], the IC50 was less than 0.5 µM.
Turning to `COc1ncc(Cl)nc1C(O)c1ccc(F)c(-c2ncnc3cc(N4CCOCC4)ccc23)c1` (stereo not shown) [Example 25, (6-Chloro-3-methoxy-pyrazin-2-yl)-[4-fluoro-3-(7-morpholin-4-yl-quinazolin-4-yl)phenyl]-methanol], the IC50 under setting [1] was less than 0.5 µM.
Regarding `COc1ccc(C(O)(c2cc(-c3ncnc4cc(N5CCOCC5)ccc34)c(F)cc2Cl)C(F)F)nn1` (stereo not shown) [Example 123, 1-[2-Chloro-4-fluoro-5-(7-morpholin-4-yl-quinazolin-4-yl)-phenyl]-2,2-difluoro-1-(6-methoxy-pyridazin-3-yl)-ethanol], the half-maximal inhibitory concentration (IC50) under setting [2] fell in the range of 10 to 30 µM.
Consider `O[C@H](c1ccc(F)c(-c2ncnc3cc(N4CCOCC4)ccc23)c1)c1nccnc1Cl` [Example 27, (R)-(3-Chloro-pyrazin-2-yl)-[4-fluoro-3-(7-morpholin-4-yl-quinazolin-4-yl)phenyl]-methanol], for which the concentration for half-maximal inhibition (IC50) under setting [1] was less than 0.5 µM.
On the same count and under the same terms, for `OC(c1cc(-c2ncnc3cc(N4CCOCC4)ccc23)ccc1Cl)c1ncnc2ccsc12` (stereo not shown) [Example 89, [2-Chloro-5-(7-morpholin-4-yl-quinazolin-4-yl)-phenyl]thieno[3,2-d}-pyrimidin-4-ylmethanol] the value was less than 0.5 µM.
Consider `OC(c1ccc(F)c(-c2ncnc3cc(N4CCOCC4)ccc23)c1)c1nncc2ccsc12` (stereo not shown) [Example 332, [4-Fluoro-3-(7-morpholin-4-yl-quinazolin-4-yl)-phenyl]thieno[2,3-d}-pyridazin-7-yl-], for which, under setting [4], the concentration for half-maximal inhibition (IC50) is less than 0.5 µM.
For the compound `COc1ccc(C(C(N)=O)c2cc(-c3ncnc4cc(N5CCOCC5)ccc34)c(F)cc2F)nn1` (stereo not shown) [Example 306, 2-[2,4-Difluoro-5-(7-morpholin-4-yl-quinazolin-4-yl)-phenyl]-2-(6-methoxy-pyridazin-3-yl)acetamide], under setting [4], the IC50 was in the range of 10 to 30 µM.
Regarding `Cc1nccnc1C(O)c1cc(-c2ncnc3cc(N4CCOCC4)ccc23)ccc1Cl` (stereo not shown) [Example 426, [2-Chloro-5-(7-morpholin-4-yl-quinazolin-4-yl)-phenyl]-(3-methyl-pyrazin-2-yl)-methanol (Ena 2)], under setting [3], the concentration for half-maximal inhibition (IC50) is 0.5 to 5 µM.
Take `NC(=O)c1ccc(C(O)c2cc(-c3ncnc4cc(N5CCOCC5)ccc34)c(F)cc2Cl)nn1` (stereo not shown) [Example 62, 6-{[2-Chloro-4-fluoro-5-(7-morpholin-4-yl-quinazolin-4-yl)phenyl]-hydroxymethyl}-pyridazine-3-carboxylic acid amide]: the IC50 under setting [1] lay in the range of 0.5 to 5 µM.
For the compound `COc1nccnc1C(O)c1cc(-c2ncnc3cc(N4CCOCC4)ccc23)ccc1Cl` (stereo not shown) [Example 422, [2-Chloro-5-(7-morpholin-4-yl-quinazolin-4-yl)-phenyl]-(3-methoxy-pyrazin-2-yl)-methanol], the IC50 under setting [5] lay in the range of 0.5 to 5 µM.
Same read-out and setting: for `Cc1nccnc1C(O)c1cc(-c2ncnc3cc(N4CCOCC4)ccc23)ccc1Cl` (stereo not shown) [Example 427, [2-Chloro-5-(7-morpholin-4-yl-quinazolin-4-yl)-phenyl]-(3-methyl-pyrazin-2-yl)-methanol (Ena 1)] the value was 0.5 to 5 µM; for `Cn1c(C(O)c2cc(-c3ncnc4cc(N5CCOCC5)ccc34)c(F)cc2F)cccc1=O` (stereo not shown) [Example 436, 6-{[2,4-Difluoro-5-(7-morpholin-4-yl-quinazolin-4-yl)-phenyl]hydroxy-methyl}-1-methyl-1H-pyridin-2-one], 0.5 to 5 µM.
For the compound `OC(c1ccc2nccn2n1)c1cc(-c2ncnc3cc(N4CCOCC4)ccc23)c(F)cc1Cl` (stereo not shown) [Example 56, [2-Chloro-4-fluoro-5-(7-morpholin-4-yl-quinazolin-4-yl)phenyl]-imidazo[1,2-b]pyridazin-6-ylmethanol], the IC50 under setting [1] lay within 0.5 to 5 µM.
For the compound `NC(=O)C(c1ccc(F)c(-c2ncnc3cc(N4CCOCC4)ccc23)c1)c1cncc(F)c1Cl` (stereo not shown) [Example 322, 2-(4-Chloro-5-fluoro-pyridin-3-yl)-2-[4-fluoro-3-(7-morpholin-4-yl-quinazolin-4-yl)-phenyl]acetamide], the IC50 under setting [4] lay within 0.5 to 5 µM.
Regarding `Cc1cnc(C)c(C(O)c2cc(-c3ncnc4cc(N5CCOCC5)ccc34)c(F)cc2F)n1` (stereo not shown) [Example 88, [2,4-Difluoro-5-(7-morpholin-4-yl-quinazolin-4-yl)-phenyl]-(3,6-dimethyl-pyrazin-2-yl)methanol], the half-inhibitory concentration (IC50) under setting [1] is less than 0.5 µM.
On to `Cc1cncnc1C(C(N)=O)c1cc(-c2ncnc3cc(N4CCOCC4)ccc23)ccc1Cl` (stereo not shown) [Example 377, 2-[2-Chloro-5-(7-morpholin-4-yl-quinazolin-4-yl)-phenyl]-2-(5-methyl-pyrimidin-4-yl)-acetamide (Ena 2)], for which, under setting [3], the IC50 is 0.5 to 5 µM.
Turning to `CC(O)(c1ccc(F)c(-c2ncnc3cc(N4CCOCC4)ccc23)c1)c1nccs1` (stereo not shown) [Example 163, 1-[4-Fluoro-3-(7-morpholin-4-yl-quinazolin-4-yl)-phenyl]-1-thiazol-2-ylethanol], the IC50 under setting [2] was in the range of 10 to 30 µM.

These data come from US11065253B2, “Arylquinazolines” (Merck Patent GmbH, priority 2013, dated 2021).
